Test results published in ChEMBL document CHEMBL5661943, “ASAP - In vitro antiviral effect” (2024).
“And” between values parts separate entries of the source, which are not always exact repeats. Identical values can stand only once.

How the values were obtained:
Zika virus [1] = assay: (§1) Functional immunofluorescence assay to measure dose dependent changes in antiviral-drug inhibitory efficacy against Zika virus PRVABC59 in Vero E6/TMPRSS2 cells. Cells are treated with antiviral candidates that are serially diluted, following infection, cells are fixed. EC50 is reported via analysis of immunofluorescence staining. The assay has been performed by Icahn School of Medicine at Mount Sinai.; type: organism-based, Chlorocebus sabaeus
dengue virus type 2 [2] = assay: Functional assay to measure dose dependent changes in antiviral-drug inhibitory efficacy against Dengue virus type 2 New Guinea C in Vero E6 miRFP670 cells (cotreated with P-gp inhibitor, CP100356). Cells are treated with antiviral candidates that are serially diluted, following infection, cells are fixed. EC50 is reported via analysis of fluorescence intensity using high-content imager. The …; type: organism-based, Chlorocebus sabaeus, Vero C1008; settings: Baseline response 0 %, P-gp concentration 500 nM, P-gp inhibitor CP100356
Zika virus [3] = assay: EC50 is reported via analysis of immunofluorescence staining. The assay has been performed by Icahn School of Medicine at Mount Sinai.; type: functional, organism-based, Chlorocebus sabaeus, VeroE6/TMPRSS2; settings: Baseline response 0 %, P-gp concentration 2 uM, P-gp inhibitor Elacidar
Zika virus [4] = assay: (§2) Functional CPE-based assay to measure dose dependent changes in antiviral-drug inhibitory efficacy against Zika virus MR766 in Vero E6 miRFP670 cells (cotreated with P-gp inhibitor, CP100356). Cells are treated with antiviral candidates that are serially diluted. EC50 is reported via analysis of MTS assay as a readout of CPE. The assay has been performed by KU Leuven.; type: organism-based, Chlorocebus sabaeus, Vero C1008; settings: Baseline response 0 %, Maximum response 100 %, P-gp inhibitor CP100356
Zika virus [5] = assay: as §2, with “cells.” for “cells (cotreated with P-gp inhibitor, CP100356).”; type: organism-based, Chlorocebus sabaeus, Vero C1008; settings: Maximum response 100 %
dengue virus type 2 [6] = assay: as §1, with “Dengue” for “Zika”, “type 2 Thailand/16681/84” for “PRVABC59”, “cells (cotreated with P-gp inhibitor, Elacridar).” for “cells.”; type: organism-based, Chlorocebus sabaeus, VeroE6/TMPRSS2
dengue virus type 2 [7] = assay: as §1, with “Dengue” for “Zika”, “type 2 Thailand/16681/84” for “PRVABC59”; type: organism-based, Chlorocebus sabaeus

C[C@@]1(O)[C@H](O)[C@@H](CO)O[C@H]1n1ccc2c(N)ncnc21 [BETA-2'-C-METHYL-7-DEAZA-ADENOSINE]
EC50 (Zika virus [1]; VeroE6/TMPRSS2): > 10 µM | EC90 (Zika virus [1]; VeroE6/TMPRSS2, Baseline response 0 %, Hill slope -0.033, Maximum measured 93.578 %, Maximum response 100 %, Minimum measured 41.57 %, R squared 0.011): > 10 µM | EC90 (dengue virus type 2 [2]; EC90 CI (lower) 3.48 uM, EC90 CI (upper) 7.993 uM, Hill slope -1.843, Maximum measured 93.524 %, Maximum response 100 %, Minimum measured 0.518 %, R squared 0.959): 57.2 µM | EC90 (dengue virus type 2 [2]; EC90 CI (lower) 4.11 uM, EC90 CI (upper) 8.283 uM, Hill slope -1.641, Maximum measured 89.89 %, Maximum response 100 %, Minimum measured 0.257 %, R squared 0.971): 84.9 µM | EC90 (dengue virus type 2 [2]; EC90 CI (lower) 6.077 uM, EC90 CI (upper) 11.974 uM, Hill slope -2.703, Maximum measured 104.698 %, Maximum response 100 %, Minimum measured 1.385 %, R squared 0.989): 43.4 µM | EC90 (dengue virus type 2 [2]; EC90 CI (lower) 9.48 uM, EC90 CI (upper) 152.006 uM, Hill slope -3.766, Maximum measured 162.932 %, Maximum response 100 %, Minimum measured 1.715 %, R squared 0.543): 122 µM | EC90 (dengue virus type 2 [2]; EC90 CI (lower) 10.134 uM, EC90 CI (upper) 21.901 uM, Hill slope -2.086, Maximum measured 107.044 %, Maximum response 100 %, Minimum measured 0.795 %, R squared 0.961): 122 µM | EC90 (dengue virus type 2 [2]; EC90 CI (lower) 13.312 uM, EC90 CI (upper) 68.915 uM, Hill slope -3.556, Maximum measured 71.93 %, Maximum response 65.616 %, Minimum measured 1.236 %, R squared 0.774): 104 µM | EC90 (dengue virus type 2 [2]; EC90 CI (lower) 21.742 uM, EC90 CI (upper) 34.481 uM, Hill slope -3.397, Maximum measured 108.212 %, Maximum response 100 %, Minimum measured 0.235 %, R squared 0.983): 99.8 µM | EC90 (Zika virus [3]; EC90 CI (lower) 0.301 uM, EC90 CI (upper) 7.202 uM, Hill slope -3.742, Maximum measured 131.957 %, Maximum response 100 %, Minimum measured 2.652 %, R squared 0.767): 4.77 µM | EC90 (Zika virus [3]; Hill slope -0.425, Maximum measured 98.697 %, Maximum response 100 %, Minimum measured 17.927 %, R squared 0.629): > 10 µM | EC90 (Zika virus [3]; Hill slope -1.446, Maximum measured 54.457 %, Maximum response 40 %, Minimum measured 5.333 %, R squared 0.69): > 10 µM | EC90 (Zika virus [3]; Hill slope -2.191, Maximum measured 87.134 %, Maximum response 60 %, Minimum measured 12.691 %, R squared 0.704): > 10 µM | EC90 (Zika virus [4]; EC90 CI (lower) 1.33 uM, EC90 CI (upper) 21.491 uM, Hill slope 2.016, Maximum measured 119.759 %, Minimum measured 49.499 %, P-gp concentration 500 nM, R squared 0.708): 5.34 µM | EC90 (Zika virus [4]; EC90 CI (lower) 2.362 uM, EC90 CI (upper) 73.078 uM, Hill slope 2.992, Maximum measured 157.756 %, Minimum measured 1.417 %, P-gp concentration 500 nM, R squared 0.838): 13.1 µM | EC90 (Zika virus [4]; EC90 CI (lower) 3.073 uM, EC90 CI (upper) 52.816 uM, Hill slope 2.304, Maximum measured 128.398 %, Minimum measured 15.752 %, P-gp concentration 500 nM, R squared 0.861): 12.7 µM | EC90 (Zika virus [4]; EC90 CI (lower) 6.142 uM, EC90 CI (upper) 39.815 uM, Hill slope 2.116, Maximum measured 119.257 %, Minimum measured 3.222 %, P-gp concentration 500 nM, R squared 0.943): 15.6 µM | EC90 (Zika virus [4]; EC90 CI (lower) 6.409 uM, EC90 CI (upper) 24.739 uM, Hill slope 3.129, Maximum measured 131.405 %, Minimum measured -2.605 %, P-gp concentration 500 nM, R squared 0.913): 12.6 µM | EC90 (Zika virus [4]; EC90 CI (lower) 8.9 uM, EC90 CI (upper) 38.162 uM, Hill slope 2.016, Maximum measured 114.801 %, Minimum measured 5.397 %, P-gp concentration 500 nM, R squared 0.961): 18.4 µM | EC90 (Zika virus [4]; EC90 CI (lower) 10.323 uM, EC90 CI (upper) 42.716 uM, Hill slope 1.659, Maximum measured 113.143 %, Minimum measured 4.385 %, P-gp concentration 100 nM, R squared 0.967): 21 µM | EC90 (Zika virus [4]; EC90 CI (lower) 14.003 uM, EC90 CI (upper) 30.102 uM, Hill slope 3.316, Maximum measured 112.736 %, Minimum measured -6.737 %, P-gp concentration 500 nM, R squared 0.984): 20.5 µM | EC90 (Zika virus [4]; EC90 CI (lower) 17.062 uM, EC90 CI (upper) 43.343 uM, Hill slope 2.491, Maximum measured 123.53 %, Minimum measured -2.699 %, P-gp concentration 500 nM, R squared 0.955): 27.2 µM | EC90 (Zika virus [4]; EC90 CI (lower) 18.425 uM, EC90 CI (upper) 28.103 uM, Hill slope 2.492, Maximum measured 115.262 %, Minimum measured 4.379 %, P-gp concentration 500 nM, R squared 0.954): 22.8 µM | EC90 (Zika virus [4]; EC90 CI (lower) 23.748 uM, EC90 CI (upper) 39.727 uM, Hill slope 2.255, Maximum measured 100.144 %, Minimum measured -8.11 %, P-gp concentration 500 nM, R squared 0.982): 30.7 µM | EC90 (Zika virus [4]; EC90 CI (lower) 28.979 uM, EC90 CI (upper) 80.3 uM, Hill slope 3.379, Maximum measured 85.565 %, Minimum measured -8.762 %, P-gp concentration 500 nM, R squared 0.96): 48.2 µM | EC90 (Zika virus [4]; Hill slope 1.338, Maximum measured 86.023 %, Minimum measured -1.473 %, P-gp concentration 500 nM, R squared 0.993): > 50 µM | EC90 (Zika virus [5]; Baseline response 0 %, EC90 CI (lower) 15.507 uM, EC90 CI (upper) 28.219 uM, Hill slope 1.884, Maximum measured 104.267 %, Minimum measured 0.699 %, R squared 0.993): 20.9 µM | EC90 (Zika virus [5]; Zika virus, Vero C1008, Baseline response 0 %, Hill slope 0.758, Maximum measured 14.246 %, Minimum measured -0.672 %, R squared 0.091): > 50 µM | EC90 (Zika virus [5]; Zika virus, Vero C1008, Baseline response 0 %, Hill slope 2.277, Maximum measured 74.443 %, Minimum measured -3.247 %, R squared 0.993): > 50 µM | EC90 (Zika virus [5]; Zika virus, Vero C1008, Baseline response 0 %, EC90 CI (lower) 6.665 uM, EC90 CI (upper) 20.693 uM, Hill slope 1.418, Maximum measured 92.41 %, Minimum measured 5.185 %, R squared 0.921): 11.7 µM | EC90 (dengue virus type 2 [6]; Baseline response 0 %, Hill slope -0.711, Maximum measured 113.708 %, Maximum response 100 %, Minimum measured 27.128 %, P-gp concentration 2 uM, R squared 0.834, P-gp inhibitor Elacidar): > 10 µM | EC90 (dengue virus type 2 [6]; Dengue virus, VeroE6/TMPRSS2): > 10 µM | EC50 (dengue virus type 2 [6]; veroe6/tmprss2): 8.6 µM and 2.59 µM | EC50 (dengue virus type 2 [7]; VeroE6/TMPRSS2): 0.045 µM | EC90 (dengue virus type 2 [7]; VeroE6/TMPRSS2, Baseline response 43.084 %, EC90 CI (lower) 0 uM, EC90 CI (upper) 0 uM, Hill slope -11.259, Maximum measured 119.711 %, Maximum response 115.226 %, Minimum measured 27.831 %, R squared 0.402): 0.055 µM
